Measured values reported in patent US10076525B2, “Sex steroid precursors alone or in combination with selective estrogen receptor modulators for the prevention and treatment of dyspareunia in postmenopausal women” (ENDORECHERCHE, INC., priority 2004, dated 2018).

Experiments:
[1] = test system: rat vagina; assay: Histomorphometry: thickness of vaginal layers at the fifth segment; format: in vivo; settings: OVX rats, 36 wk
Source text: (§1) Animals from the intact and OVX control groups received the vehicle alone.
Twenty-four hours after the last dosing, overnight fasted animals were sacrificed under isoflurane anesthesia by exsanguination at the abdominal aorta (9 animals per group) or by intracardiac perfusion with 10% neutral buffered formalin (5 animals per group). Vaginae from non-perfused animals were collected and weighed, while the vaginae collected from perfused animals were marked with black ink on the ventral side, and then trimmed as described below.
The entire vagina of each perfused animal was post-fixed in 10% neutral buffered formalin.
Measurements of the different vaginal layers were performed on the fifth segment (FIG. 1), which is approximately halfway between the middle region and the portio vaginalis uteri (segment 7). […] Images were captured with a DC-330 3CCD color camera (Dage-MTI, Michigan City, Ind., USA) and quantified using Image-Pro Plus 3.0 software (Media Cybernetics, Silver Spring, Md., USA). Thus, using a ×5 objective (Leica Microsystems, Willowdale, Ont., Canada), 3 to 4 thickness measurements per layer were obtained from representative areas of the epithelium and muscularis, and for the three vaginal layers together. The total vaginal thickness, the thickness of the epithelium and the thickness of the muscularis were thus measured. The thickness of the lamina propria was obtained by subtracting the thickness of the epithelium and muscularis from total vaginal thickness.
Data are presented as means±SEM of 8-9 animals per group for vaginal weight or 5 animals per group for vaginal layer thickness determinations. Statistical significance was determined according to the multiple-range test of Duncan-Kramer (Kramer, 1956, Biometrics, 12: 307-310).

[2] = test system: PR; assay: Immunohistochemistry of PR in fifth vaginal segment; format: in vivo, rat; settings: OVX rats, 36 wk
Procedure: as §1
Immunostaining was performed using Zymed SP kits (San Francisco, Calif.). Paraffin sections (4 μm) were deparaffinized in toluene and rehydrated through ethanol. Endogenous peroxidase activity was eliminated by preincubation with 3% H2O2 in methanol for 30 min. A microwave retrieval technique using citrate buffer (Tacha and Chen, 1994) was applied. After cooling the slides, non-specific binding was blocked using 10% goat serum for 20 min. Sections were then incubated for 1.5 h at room temperature with ERα (AB-1, Calbiochem, California), AR (N-20, Santa Cruz Biotechnology, California) or PR (Ab-4, NeoMarkers, California) antibodies, at 1:200, 1:250 and 1:250 respectively. After washing in PBS buffer, sections were incubated with biotinylated anti-rabbit secondary antibody for 10 min and thereafter with streptavidin-peroxidase for another 10 min. Diaminobenzidine was used as the chromogen to visualize the biotin/streptavidin-peroxidase complex, under microscope monitoring. Counterstaining was performed using #2 Gill's hematoxylin for 30 sec. For controls, immunoabsorption with an excess of the peptide used to raise the antibody, or substitution with non immune rabbit IgG, was performed.

`C[C@]12CC[C@H](O)CC1=CC[C@@H]1[C@@H]2CC[C@]2(C)C(=O)CC[C@@H]12` [DHEA, dehydroepiandrosterone] was tested, and the “total vaginal thickness lower than that of the Premarin alone-treated group” value ([1]; fifth segment) was “about 25%”, the muscularis thickness ([1]; fifth segment, mean±SEM) was 50±2 μm and the “thickness of the vaginal epithelium” value ([1]; fifth segment, mean±SEM) was 38±4 μm. The “total vaginal wall thickness” value ([1]; fifth segment, mean±SEM, OVX 128±3, intact 262±39) was 184±21 μm, the lamina propria thickness ([1]; fifth segment, mean±SEM, total minus epithelium and muscularis, OVX 76±2, intact 135±28) was 96±20 μm and the “reversal of the OVX-induced decrease of the vaginal muscular layer” value ([1]; 46% decrease after OVX) was 41%. The “reversal of the OVX-induced decrease in total vaginal wall thickness” value ([1]; 50% decrease after OVX) was 42%, the “PR: semi-quantitative evaluation of labeled nuclei” value (shortened to “PR: semi-quantitative evaluation”) ([2]; epithelium) was 0 and the “PR: semi-quantitative evaluation” value ([2]; lamina propria) was 0. For the same compound, the “PR: labeling intensity” value ([2]; muscularis) was “++” and the “PR: semi-quantitative evaluation” value ([2]; muscularis) was 1.
